“Also recorded” adds a separate entry of the source. Ends that are not written are not given here. * marks the point of attachment. FITC = O=C1OC2(c3ccc(O)cc3Oc3cc(O)ccc32)c2ccc(NC(=S)*)cc21
Key:
[1] = system: cell suspensions prepared from C8161 tumors; assay: Phage binding to cell suspensions prepared from C8161 tumors; format: cell-based, mouse; settings: phage clone, ex vivo
C8161 xenografts = assay: In vivo phage homing to C8161 xenograft tumors; set-up: species or system mouse; settings: i.v. injected phage, C8161 xenograft mice
Procedure: (§1) The following cell lines were maintained in DMEM supplemented with 10% FCS: C8161 human melanoma, MDA-MB-435 human breast cancer, KRIB human osteosarcoma, and human prostate cancer cells PPC1, DU145. LNCaP human prostate cancer cell line was grown in RPMI 1640 medium with 10 mM HEPES, 1 mM sodium pyruvate and 1.5 g/L sodium bicarbonate supplemented with 10% FCS. M12 human prostate cancer cell line was cultured in RPMI 1640 with 5 μg/ml insulin-transferrin-sodium selenite (ITS), 2.5 μg/ml fungizone, 50 μg/ml gentamycin, 0.2 μM dexamethasone, 10 ng/ml epidermal growth factor (EGF), and 5% FCS (Bae et al., 1998). To produce tumors, nude BALB/c and C56BL/6 mice were subcutaneously (C8161, KRIB, and PPC1) or orthotopically ([…], PPC1, DU145, M12, and LNCaP) injected with 1×10^6 tumor cells. Transgenic mouse tumor models included TRAMP prostate cancer, MMTV-PyMT breast cancer, and K14-HPV16 cervical cancer. To initiate cervical carcinogenesis, female K14-HPV16 mice (Arbeit et al., 1994) were treated with 17β-estradiol (E2; (Arbeit et al., 1996; Giraudo et al., 2004). Briefly, one-month-old virgin female transgenic (heterozygous K14-HPV16, 1203#1) and nontransgenic (FVB/n) mice were anesthetized with isoflurane, and continuous release pellets that deliver E2 at doses of 0.05 mg over 60 days (Innovative Research of America, Sarasota, Fla., USA) were implanted subcutaneously in the dorsal back skin. Subsequent pellets were implanted at 3 and 5 months of age for a total of 6 months of hormone treatment. K14-HPV16 mice were maintained in the FVB/n background (FVB/n; The Jackson Laboratory). The mice were maintained in accordance with the University of California, San Francisco (UCSF) institutional guidelines governing the care of laboratory mice. The animal experimentation was approved by Animal Research Committees at UCSF or The Burnham Institute.
(§2) In vivo homing specificity of phage was tested as described (Hoffman, 2004). Briefly, mice bearing tumors were anesthetized and intravenously injected with 5×10^9 pfu of phage. After 7 min, the mice were perfused through the heart with PBS containing 0.5% BSA. The tumor and control organs were dissected from each mouse and the phage were rescued and tittered. For histology analysis, the mice were perfused with 4% PFA 30 min after the injection of phage. Tissues were embedded in Tissue-Tek O.C.T. and 5 μm sections were prepared for phage immunostaining.

[2] = system: MDA-MB-435 orthotopic xenografts; assay: In vivo phage homing to MDA-MB-435 orthotopic xenografts; set-up: species or system mouse; settings: for phage homing to MDA-MB-435 tumors (in words): i.v. injected phage
Procedure: as §1, §2

normal tissues = assay: In vivo phage homing to normal and control tissues; set-up: species or system mouse; settings: i.v. injected phage
Procedure: as §2

K14-HPV16 skin cancer = assay: In vivo homing to K14-HPV16 skin cancer; set-up: species or system mouse; settings: i.v. injection, K14-HPV16 mice
Procedure: as §1, §2

[3] = system: K14-HPV16/E2 cervical tumors; assay: In vivo phage homing to K14-HPV16/E2 cervical tumors; set-up: species or system mouse; settings: for phage homing to K14-HPV16/E2 cervical tumors (in words): i.v. injected phage
Procedure: as §1, §2

CXCR4 = molecular target: T1, CXCR4 (Homo sapiens, UniProt P61073); assay: Phage binding to CXCR4-transfected 293T cells; settings: 293T cells
T1 construct: expressed in transfected cells; host or cells: 293T cells, transient transfection with FuGene 6
Procedure: (§3) The 293T cells were transfected with plasmids encoding CXCR4 (Helbig et al., 2003) or VEGFR2 (Borges et al., 2000) using FuGene 6 transfection reagent (Roche Diagnostics, Indianapolis, Ind.). Briefly, plasmid (10 μg) was mixed with 900 μl of serumfree DMEM and 50 μl of FuGene and incubated for 15 min at room temperature before adding the mixture to the cells. The cells were detached using EDTA after 48 hrs post transfection and washed with PBS containing 1% BSA. Phage (5×10^9 pfu) were incubated with the transfected cells and bound phage were rescued and titrated. For competitive binding assay, the cognate peptide (150 μg/ml) or antibody (50 μg/ml) was added during incubating of the phage with cells. Targeted proapoptotic peptide treatment of tumor-bearing mice Prostate cancer model. Orthotopic xenografted prostate tumors were established by injecting 1×10^6 PPC1 human prostate cancer cells into the mouse prostate. Fifteen days post inoculation, the mice were intravenously injected with D(KLAKLAK)2-CREAGRKAC (SEQ ID NO:41), an equimolar mixture of D(KLAKLAK)2 (SEQ ID NO:19) and CREAGRKAC (SEQ ID NO:6), or PBS. Biweekly injections of 100 μg/dose/mouse were given for three weeks. Melanoma model. Nude BALB/c mice were subcutaneously injected with 1×10^6 C8161 human melanoma cells. Treatment started when mean tumor volumes reached about 100 mm3. Mice with size-matched tumors were randomized into three groups. The therapeutic group received a chimera of tumor homing peptide with the proapoptotic motif (D(KLAKLAK)2-CLSDCGKRKC; SEQ ID NO:42). The control groups received an equimolar mixture of CLSDGKRKC (SEQ ID NO:4) and D(KLAKLAK)2 (SEQ ID NO:19), or PBS alone. The tumor-bearing mice were intravenously injected with 200 μg/dose/mouse once a week for three weeks. The mice were monitored for weight loss, and tumors were dissected and weighed at the termination of the experiment. Histological analysis was performed to evaluate the density of tumor lymphatics and blood vessels. The animal experiments reported here were approved by The Burnham Institute Animal Research Committee.

TRAMP PIN lesions = assay: In vivo phage homing to TRAMP pre-malignant (PIN) lesions; set-up: species or system mouse; settings: phage clones tested in vivo individually
Procedure: as §1, §2

[4] = system: cell suspension derived from pre-malignant prostate lesions; assay: Phage binding to cell suspension derived from pre-malignant prostate lesions; format: cell-based, mouse; settings: phage clones
Procedure: (§4) An NNK-encoded CX7C library display on T7Select415-1 phage (Novagen) was prepared as previously described (Laakkonen et al., 2002). Phage selection and validation have been described (Hoffman, 2004). A two-step procedure was designed for the selection of peptides targeting the tumor lymphatic vessels of pre-malignant prostate lesions and prostate tumor. First, the phage library was incubated with cells derived from normal prostate to subtract the phage that bind to normal prostate. Second, the anti-podoplanin magnetic beads were used to isolate lymphatic endothelial cells. 2-3 rounds of ex vivo selection and 2-3 rounds of in vivo selections were performed. For the ex vivo selections, cell suspensions were prepared from normal prostates of tumor-free littermates of TRAMP mice, pre-malignant prostates of 14- to 16-week-old TRAMP mice, and tumor tissues of 25- to 28-week-old TRAMP mice. Collagenase IA (1 mg/ml, Sigma) was used to disperse the tissues. About 1×10^7 normal prostate cells were incubated at 4° C. for 3 hrs with […] plaque forming units (pfu) of T7 phage displaying a CX7C peptide library. The samples were centrifuged at 1200 rpm for 10 min, the supernatant (the normal prostate-subtracted phage library) was recovered and then incubated overnight at 4° C. with 5×10^7 cells derived from pre-malignant prostate tissue or prostate tumor. The cells were washed to remove unbound phage, incubated with rat anti-mouse podoplanin for 45 min at 4° C., and washed three times with cold PBS containing 0.5% BSA. Podoplanin-positive cells were then isolated using M450 sheep anti-rat IgG Dynabeads (M450; Dynal, Oslo, Norway). Phage that bound to the podoplanin-positive cell population were rescued and amplified in E. coli. In vivo phage library screening was performed as described (Laakkonen et al., 2002).

TRAMP prostate tumors = assay: In vivo phage homing to TRAMP prostate tumors; set-up: species or system mouse; settings: i.v. injected phage clone
Procedure: as §1, §2

[5] = system: tumor derived cell suspensions (TRAMP); assay: Phage binding to TRAMP tumor derived cell suspensions; format: cell-based, mouse; settings: phage clones
Procedure: as §4

[6] = system: K14-HPV16/E2 cervical lesions; assay: Distribution of fluorescent peptides in K14-HPV16/E2 mice with cervical lesions; format: in vivo, mouse; settings: for fluorescent peptide in normal cervix and control tissues: 100 μg i.v., 2 hrs; for fluorescent peptide in K14-HPV16/E2 cervical lesions/tumors (in words): labeled peptide i.v.
Procedure: The frozen sections were prepared for immunohistological analysis.

[7] = system: PPC1 orthotopic xenografts; assay: Targeted proapoptotic peptide treatment of mice with PPC1 orthotopic xenografts; format: in vivo; settings: 100 μg/dose/mouse biweekly i.v., three weeks
Procedure: as §3

[8] = system: K14-HPV16/E2 cervical dysplasia; assay: In vivo phage homing to K14-HPV16/E2 cervical dysplasia (CIN-3); set-up: species or system mouse; settings: for phage homing to K14-HPV16/E2 pre-malignant cervical lesions (in words): i.v. injected phage
Procedure: as §1, §2

[9] = listed as Fluoresceinlabeled LyP-2 peptide
[10] = phage homing in vivo, MDA-MB-435 orthotopic xenografts
[11] = phage homing in vivo, K14-HPV16/E2 cervical dysplasia
[12] = phage homing in vivo, K14-HPV16/E2 cervical cancer / cervical tumors

T1 sequence (P61073 whole entry, species assumed): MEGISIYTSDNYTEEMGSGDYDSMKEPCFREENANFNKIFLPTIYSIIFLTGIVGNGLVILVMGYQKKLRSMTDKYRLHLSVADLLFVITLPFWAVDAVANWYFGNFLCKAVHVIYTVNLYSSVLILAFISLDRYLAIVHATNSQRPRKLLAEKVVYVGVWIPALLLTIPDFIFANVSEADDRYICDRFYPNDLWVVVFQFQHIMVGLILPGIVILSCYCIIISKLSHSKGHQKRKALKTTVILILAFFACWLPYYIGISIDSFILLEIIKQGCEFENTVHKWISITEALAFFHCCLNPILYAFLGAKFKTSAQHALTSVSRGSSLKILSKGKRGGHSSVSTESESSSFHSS

Substance: CLDGGRPKC
- binding to cell suspensions prepared from C8161 tumors (in words) [1]: bound to cell suspensions prepared from C8161 tumors
- phage homing to C8161 tumors (in words) (C8161 xenografts): homed selectively to the tumors

Substance: CGNKRTRGC [LyP-1, previously described lymphatic homing peptide recognizing breast cancer lymphatics and tumor cells, reference compound]
- phage homing to MDA-MB-435 tumors (in words) [2]: homes to the MDA-MB-435 tumors
- phage homing to MDA-MB-435 tumors (in words) ([2]; listed as LyP-1 phage): homed to MDA-MB-435 tumors
- phage homing to normal breast tissue (normal tissues): Neither phage homed
- phage homing to normal cervix (normal tissues): Neither phage homed
- homing to K14-HPV16 skin cancers (in words) (K14-HPV16 skin cancer): homed to the K14-HPV16 skin cancer lymphatics
- phage homing to K14-HPV16/E2 cervical tumors (in words) [3]: not to the cervical tumors
- phage binding to CXCR4-transfected 293T cells (in words) (CXCR4): did not bind

Substance: CASLSCR
- enrichment to pre-malignant TRAMP lesions relative to nonrecombinant phage (TRAMP PIN lesions): 12 fold
- binding to cell suspension from pre-malignant prostate lesions (in words) [4]: bound

Substance: CSMSAKKKC
- enrichment in TRAMP tumors relative to nonrecombinant phage (TRAMP prostate tumors): about 30 fold
- binding to TRAMP tumor derived cell suspensions (in words) [5]: robust binding

Substance: CSGGKVLDC
- enrichment to pre-malignant TRAMP lesions relative to nonrecombinant phage (TRAMP PIN lesions): 14 fold
- binding to cell suspension from pre-malignant prostate lesions (in words) [4]: bound

Substance: CKTRVSCGV
- enrichment in TRAMP tumors relative to nonrecombinant phage (TRAMP prostate tumors): about 30 fold
- binding to TRAMP tumor derived cell suspensions (in words) [5]: robust binding

Substance: FITC-LyP-2: fluorescein-labeled LyP-2 peptide (CNRRTKAGC) ({FITC}-CNRRTKAGC; cysteine pairing not given here)
- fluorescent peptide in normal cervix and control tissues [6]: Little or no fluorescence
- fluorescent peptide in normal cervix and control tissues [6, 9]: No peptide accumulation was observed
- overlap with podoplanin in cervical lesions ([6]; fluorescein-labeled peptide): 82%
- co-localization with MECA-32 ([6]; fluorescein-labeled peptide, cervical lesions): not with MECA-32
- fluorescent peptide in K14-HPV16/E2 cervical lesions/tumors (in words) [6, 9]: accumulated in the cervical lesions
- fluorescent peptide in K14-HPV16/E2 cervical lesions/tumors (in words) ([6]; listed as fluorescein labeled-LyP-2 peptide): homes to cervical carcinoma

Substance: D(KLAKLAK)2-CREAGRKAC (KLAKLAKKLAKLAKCREAGRKAC) [chimera of REA homing peptide with the pro-apoptotic motif D(KLAKLAK)2]
- number of tumor lymphatics (podoplanin staining) [7]: greatly reduced
- tumor blood vessel count/density (MECA-32 staining) [7]: unaffected
- tumor volume / tumor growth [7]: unaffected
- number of tumor lymphatics (podoplanin staining) ([7]; listed as REA conjugate): reduced the number of tumor lymphatics
- tumor blood vessel count/density (MECA-32 staining) ([7]; listed as REA conjugate): no effect
- tumor volume / tumor growth ([7]; listed as REA conjugate): no effect

Substance: CNRRTKAGC [LyP-2, homing peptide from K14-HPV16 dysplastic skin lesions; homes to cervical lesion lymphatics]
- Fold over control phage [2, 10]: 3 fold
- Specific Homing [2, 10]: No
- phage homing to normal breast tissue (normal tissues): Neither phage homed
- phage homing to normal cervix (normal tissues): Neither phage homed
- phage homing to normal cervix (normal tissues; listed as LyP-2 phage): not to normal cervix
- homing to K14-HPV16 skin cancers (in words) (K14-HPV16 skin cancer): homed to the lymphatics associated with dysplasias and squamous cell carcinomas in the skin; also recorded: homed to the K14-HPV16 skin cancer lymphatics
- phage homing to K14-HPV16/E2 pre-malignant cervical lesions (in words) [8]: homes to the cervical cancers and pre-malignant lesions
- phage homing to K14-HPV16/E2 pre-malignant cervical lesions (in words) ([8]; listed as LyP-2 phage): Significantly more; also recorded: robust homing
- Fold over control phage [8, 11]: 17 fold
- Specific Homing [8, 11]: Yes
- phage homing to K14-HPV16/E2 cervical tumors (in words) [3]: homes to the cervical cancers and pre-malignant lesions
- phage homing to K14-HPV16/E2 cervical tumors (in words) ([3]; listed as LyP-2 phage): Significantly more; also recorded: robust homing
- Fold over control phage [3, 12]: 22 fold
- Specific Homing [3, 12]: Yes

Reference: patent US8536132B2, “Lymphatic zip codes in tumors and pre-malignant lesions” (Sanford-Burnham Medical Research Institute, priority 2006, dated 2013)
